Test results taken from patent US12114689B2 (NICOVENTURES TRADING LIMITED, priority 2018, dated 2024).

Tests used:
[1] = binding energy with the cyclodextrin host; details: such as (2-Hydroxypropyl)-β-cyclodextrin
Text: The flavor components should be added last; this is due to the generally higher binding energy (vs. nicotine) with the cyclodextrin host. […] For menthol example, the approximate binding energies are −4.13 Kcal·mol^−1 (nicotine) and −5.06 Kcal·mol^−1 (menthol). […] Microfiltration may then be performed, in this case, to remove any excess menthol which has not formed a complex with cyclodextrin.

[2] = cited from earlier work

| Compound | approximate binding energy with the cyclodextrin host [1] [kJ/mol] | solubility in water compared to base cyclodextrins such as β-cyclodextrin [2] |
| --- | --- | --- |
| CC1CCC(C(C)C)C(O)C1 (stereo not drawn) [menthol] | ~-21.2 | – |
| CN1CCC[C@H]1c1cccnc1 (stereo in doubt) [Nicotine, 3-(1-methylpyrrolidin-2-yl) pyridine] | ~-17.3 | – |
| 2-hydroxy-propyl-β-cyclodextrin [2-hydroxy-propyl-O-cyclodextrin] | – | increased solubility in water |
